From PubChem BioAssay (NCI)
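Exposure lasted 48 hours, with cells grown in 96-well plates and compounds tested at five concentrations. Abbreviation: GI50, concentration required for 50% inhibition of growth. TGI marks complete inhibition of growth.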 Peptide text beside a SMILES is read from it. * marks the point of attachment. Boc = CC(C)(C)OC(=O)*

What was measured:
Experiment in all cases: NCI anticancer screen, dose series, 48 h
OVCAR-3 ovarian = system: OVCAR-3 ovarian
EKVX NSCLC = system: EKVX NSCLC
HCC-2998 colon = system: HCC-2998 colon
786-0 renal = system: 786-0 renal
MALME-3M melanoma = system: MALME-3M melanoma
OVCAR-4 ovarian = system: OVCAR-4 ovarian
ACHN renal = system: ACHN renal
UACC-257 melanoma = system: UACC-257 melanoma
UO-31 renal = system: UO-31 renal
MDA-MB-435 = system: MDA-MB-435
SF-539 CNS = system: SF-539 CNS
SW-620 colon = system: SW-620 colon
CAKI-1 renal = system: CAKI-1 renal
MDA-MB-231 breast = system: MDA-MB-231 breast
HT29 colon = system: HT29 colon
SK-MEL-5 melanoma = system: SK-MEL-5 melanoma
DU-145 prostate = system: DU-145 prostate
SN12C renal = system: SN12C renal
SF-295 CNS = system: SF-295 CNS
A549 NSCLC = system: A549 NSCLC
NCI-H522 lung = system: NCI-H522 lung
K-562 leukemia = system: K-562 leukemia
SNB-19 CNS = system: SNB-19 CNS
M14 melanoma = system: M14 melanoma
NCI-H226 lung = system: NCI-H226 lung
SK-MEL-28 melanoma = system: SK-MEL-28 melanoma
HCT-116 colon = system: HCT-116 colon
RXF 393 renal = system: RXF 393 renal
SK-MEL-2 melanoma = system: SK-MEL-2 melanoma
HL-60(TB) leukemia = system: HL-60(TB) leukemia
RPMI-8226 leukemia = system: RPMI-8226 leukemia
HOP-62 NSCLC = system: HOP-62 NSCLC
HS 578T breast = system: HS 578T breast
SNB-75 CNS = system: SNB-75 CNS
TK-10 renal = system: TK-10 renal
NCI-H460 lung = system: NCI-H460 lung
KM12 colon = system: KM12 colon
MOLT-4 leukemia = system: MOLT-4 leukemia
U251 CNS = system: U251 CNS
OVCAR-8 ovarian = system: OVCAR-8 ovarian
HOP-92 NSCLC = system: HOP-92 NSCLC
OVCAR-5 ovarian = system: OVCAR-5 ovarian
LOX IMVI melanoma = system: LOX IMVI melanoma
MCF7 breast = system: MCF7 breast
PC-3 prostate = system: PC-3 prostate
A498 renal = system: A498 renal
COLO 205 colon = system: COLO 205 colon
CCRF-CEM leukemia = system: CCRF-CEM leukemia
SF-268 CNS = system: SF-268 CNS
HCT-15 colon = system: HCT-15 colon
BT-549 breast = system: BT-549 breast
T-47D breast = system: T-47D breast
SK-OV-3 ovarian = system: SK-OV-3 ovarian
NCI/ADR-RES ovarian = system: NCI/ADR-RES ovarian
IGROV1 ovarian = system: IGROV1 ovarian
UACC-62 melanoma = system: UACC-62 melanoma
NCI-H23 lung = system: NCI-H23 lung
SR leukemia = system: SR leukemia

Nc1ccc(C#Cc2ccccc2C#CCCCCO)cc1 gave a GI50 (OVCAR-3 ovarian) of 23 µM, a TGI (OVCAR-3 ovarian) of 47.2 µM and a GI50 (EKVX NSCLC) of 18.9 µM. For the same compound, the TGI (EKVX NSCLC) was 37.8 µM, the GI50 (HCC-2998 colon) was 16.6 µM and the TGI (HCC-2998 colon) was 31.3 µM. For the same compound, the GI50 (786-0 renal) was 13.8 µM, the TGI (786-0 renal) was 27.5 µM and the GI50 (MALME-3M melanoma) was 24.8 µM. It also gave a TGI (MALME-3M melanoma) of 43.9 µM, a GI50 (OVCAR-4 ovarian) of 16.7 µM and a TGI (OVCAR-4 ovarian) of 32.6 µM. It also gave a GI50 (ACHN renal) of 14.5 µM, a TGI (ACHN renal) of 27.5 µM and a GI50 (UACC-257 melanoma) of 18.9 µM. The TGI (UACC-257 melanoma) was 33.8 µM, the GI50 (UO-31 renal) was 16.6 µM and the TGI (UO-31 renal) was 30.5 µM. It also gave a GI50 (MDA-MB-435) of 19.7 µM, a TGI (MDA-MB-435) of 36.6 µM and a GI50 (SF-539 CNS) of 17.6 µM. For the same compound, the TGI (SF-539 CNS) was 33.9 µM, the GI50 (SW-620 colon) was 17.6 µM and the TGI (SW-620 colon) was 33.1 µM. It also gave a GI50 (CAKI-1 renal) of 20.9 µM, a TGI (CAKI-1 renal) of 40.4 µM and a GI50 (MDA-MB-231 breast) of 14 µM. It also gave a TGI (MDA-MB-231 breast) of 27.5 µM, a GI50 (HT29 colon) of 13.3 µM and a TGI (HT29 colon) of 26.1 µM. For the same compound, the GI50 (SK-MEL-5 melanoma) was 19.8 µM, the TGI (SK-MEL-5 melanoma) was 38.6 µM and the GI50 (DU-145 prostate) was 18.4 µM. It also gave a TGI (DU-145 prostate) of 35.1 µM, a GI50 (SN12C renal) of 6.26 µM and a TGI (SN12C renal) of 20 µM. For the same compound, the GI50 (SF-295 CNS) was 22.3 µM, the TGI (SF-295 CNS) was 41.1 µM and the GI50 (A549 NSCLC) was 14.7 µM. For the same compound, the TGI (A549 NSCLC) was 28.7 µM, the GI50 (NCI-H522 lung) was 15.7 µM and the TGI (NCI-H522 lung) was 29.5 µM. The GI50 (K-562 leukemia) was 19.7 µM, the TGI (K-562 leukemia) was 40.8 µM and the GI50 (SNB-19 CNS) was 17.5 µM. For the same compound, the TGI (SNB-19 CNS) was 31.3 µM, the GI50 (M14 melanoma) was 14.1 µM and the TGI (M14 melanoma) was 28.1 µM. It also gave a GI50 (NCI-H226 lung) of 17.5 µM, a TGI (NCI-H226 lung) of 40.5 µM and a GI50 (SK-MEL-28 melanoma) of 9.31 µM. For the same compound, the TGI (SK-MEL-28 melanoma) was 21.9 µM, the GI50 (HCT-116 colon) was 14.3 µM and the TGI (HCT-116 colon) was 28.2 µM. It also gave a GI50 (RXF 393 renal) of 4.69 µM, a TGI (RXF 393 renal) of 20.5 µM and a GI50 (SK-MEL-2 melanoma) of 18.8 µM. It also gave a TGI (SK-MEL-2 melanoma) of 37.1 µM, a GI50 (HL-60(TB) leukemia) of 23.4 µM and a TGI (HL-60(TB) leukemia) of 44 µM. It also gave a GI50 (RPMI-8226 leukemia) of 18.1 µM, a TGI (RPMI-8226 leukemia) of 44.2 µM and a GI50 (HOP-62 NSCLC) of 15.2 µM. It also gave a TGI (HOP-62 NSCLC) of 28.7 µM, a GI50 (HS 578T breast) of 26.8 µM and a TGI (HS 578T breast) of 64.7 µM. The GI50 (SNB-75 CNS) was 14.4 µM, the TGI (SNB-75 CNS) was 29.8 µM and the GI50 (TK-10 renal) was 21.6 µM. It also gave a TGI (TK-10 renal) of 46.5 µM, a GI50 (NCI-H460 lung) of 21.8 µM and a TGI (NCI-H460 lung) of 45.4 µM. The GI50 (KM12 colon) was 15.9 µM, the TGI (KM12 colon) was 33.4 µM and the GI50 (MOLT-4 leukemia) was 16.5 µM. For the same compound, the TGI (MOLT-4 leukemia) was 35.1 µM, the GI50 (U251 CNS) was 11.1 µM and the TGI (U251 CNS) was 23.1 µM. For the same compound, the GI50 (OVCAR-8 ovarian) was 17 µM, the TGI (OVCAR-8 ovarian) was 33.5 µM and the GI50 (HOP-92 NSCLC) was 15.5 µM. It also gave a TGI (HOP-92 NSCLC) of 32.1 µM, a GI50 (OVCAR-5 ovarian) of 16.4 µM and a TGI (OVCAR-5 ovarian) of 31.3 µM. For the same compound, the GI50 (LOX IMVI melanoma) was 16.2 µM, the TGI (LOX IMVI melanoma) was 29.7 µM and the GI50 (MCF7 breast) was 23.5 µM. It also gave a TGI (MCF7 breast) of 52.2 µM, a GI50 (PC-3 prostate) of 15.6 µM and a TGI (PC-3 prostate) of 28.9 µM. The GI50 (A498 renal) was 19.8 µM, the TGI (A498 renal) was 42.1 µM and the GI50 (COLO 205 colon) was 16.1 µM. For the same compound, the TGI (COLO 205 colon) was 30.1 µM, the GI50 (CCRF-CEM leukemia) was 13.2 µM and the TGI (CCRF-CEM leukemia) was 28.1 µM. The GI50 (SF-268 CNS) was 19.9 µM, the TGI (SF-268 CNS) was 40.4 µM and the GI50 (HCT-15 colon) was 15.3 µM. It also gave a TGI (HCT-15 colon) of 28.7 µM, a GI50 (BT-549 breast) of 16.3 µM and a TGI (BT-549 breast) of 34.8 µM. It also gave a GI50 (T-47D breast) of 15.4 µM, a TGI (T-47D breast) of 30.7 µM and a GI50 (SK-OV-3 ovarian) of 18.1 µM. For the same compound, the TGI (SK-OV-3 ovarian) was 34.7 µM, the GI50 (NCI/ADR-RES ovarian) was 18.9 µM and the TGI (NCI/ADR-RES ovarian) was 40.4 µM. For the same compound, the GI50 (IGROV1 ovarian) was 16.1 µM, the TGI (IGROV1 ovarian) was 30.2 µM and the GI50 (UACC-62 melanoma) was 14.9 µM. The TGI (UACC-62 melanoma) was 28.3 µM, the GI50 (NCI-H23 lung) was 18.2 µM and the TGI (NCI-H23 lung) was 35.1 µM.

CC(C)C(NC(=O)OC(C)(C)C)C(=O)N1CCCC1C(=O)O (stereo not drawn) (Boc-Val-Pro-OH; configuration not given here) gave a GI50 (HS 578T breast) of 36.1 µg/mL and a GI50 (UACC-62 melanoma) of 94.1 µg/mL.

C[C@]12CC[C@H]3[C@@H](CC[C@]4(O)C[C@@H](O)CC[C@]34C=O)[C@@]1(O)CC[C@@H]2C1=CC(=O)OC1 showed a TGI (OVCAR-3 ovarian) of 1.55 µM, a TGI (EKVX NSCLC) of 1.3 µM and a TGI (HCC-2998 colon) of 7.13 µM. It also gave a TGI (786-0 renal) of over 100 µM, a TGI (MALME-3M melanoma) of 2.03 µM and a TGI (OVCAR-4 ovarian) of 2.33 µM. The TGI (ACHN renal) was 1.49 µM, the TGI (UACC-257 melanoma) was 2.5 µM and the TGI (UO-31 renal) was 2.91 µM. The TGI (MDA-MB-435) was 1.83 µM, the TGI (SF-539 CNS) was 0.967 µM and the TGI (SW-620 colon) was 2.79 µM. For the same compound, the TGI (CAKI-1 renal) was 0.61 µM, the TGI (MDA-MB-231 breast) was over 29.6 µM and the TGI (HT29 colon) was 2.03 µM. For the same compound, the TGI (SK-MEL-5 melanoma) was 1.16 µM, the TGI (DU-145 prostate) was 0.863 µM and the TGI (SN12C renal) was 1.8 µM. For the same compound, the TGI (SF-295 CNS) was 1.74 µM, the TGI (A549 NSCLC) was 0.408 µM and the TGI (NCI-H522 lung) was 1.4 µM. It also gave a TGI (K-562 leukemia) of over 100 µM, a TGI (SNB-19 CNS) of 4.87 µM and a TGI (M14 melanoma) of 3.51 µM. For the same compound, the TGI (NCI-H226 lung) was 2.69 µM, the TGI (SK-MEL-28 melanoma) was 4.84 µM and the TGI (HCT-116 colon) was 0.595 µM. The TGI (RXF 393 renal) was 0.877 µM, the TGI (SK-MEL-2 melanoma) was 2.86 µM and the TGI (HL-60(TB) leukemia) was 47.6 µM. The TGI (HOP-62 NSCLC) was 0.533 µM, the TGI (HS 578T breast) was over 100 µM and the TGI (TK-10 renal) was 1.63 µM. It also gave a TGI (NCI-H460 lung) of 0.591 µM, a TGI (KM12 colon) of 6.66 µM and a TGI (MOLT-4 leukemia) of 0.907 µM. The TGI (U251 CNS) was 2.9 µM, the TGI (OVCAR-8 ovarian) was 1.69 µM and the TGI (OVCAR-5 ovarian) was 3.57 µM. The TGI (LOX IMVI melanoma) was 2.46 µM, the TGI (PC-3 prostate) was 4.56 µM and the TGI (A498 renal) was 1.93 µM. It also gave a TGI (COLO 205 colon) of 6.7 µM, a TGI (CCRF-CEM leukemia) of over 100 µM and a TGI (SF-268 CNS) of 2 µM. The TGI (HCT-15 colon) was 1.47 µM, the TGI (BT-549 breast) was 1.08 µM and the TGI (T-47D breast) was 5.03 µM. For the same compound, the TGI (SK-OV-3 ovarian) was 2.79 µM, the TGI (NCI/ADR-RES ovarian) was 1.92 µM and the TGI (IGROV1 ovarian) was 19.6 µM. For the same compound, the TGI (UACC-62 melanoma) was 3.38 µM, the TGI (NCI-H23 lung) was 1.12 µM and the TGI (SR leukemia) was over 100 µM.
